# Measurements from ChEMBL document CHEMBL3596165, “Synthesis, structure elucidation and identification of antiproliferative activities of a novel class of thiophene bioisosteres bearing the privileged 7,8-dihydroimidazo[2,1-c][1,2,4]triazin-4(6H)-one scaffold” (Bioorg Med Chem, 2015).
# Key:
# Format in all cases: functional
# Conditions in all cases: read-out: GI
# [1] = system: HeLa; assay: Antiproliferative activity against human HeLa cells at 50 ug/ml after 48 hrs by BrdUrd incorporation assay
# [2] = system: T47D; assay: Antiproliferative activity against human T47D cells at 50 ug/ml after 48 hrs by BrdUrd incorporation assay
# [3] = system: HeLa; assay: Antiproliferative activity against human HeLa cells at 50 ug/ml after 72 hrs by BrdUrd incorporation assay
# [4] = system: T47D; assay: Antiproliferative activity against human T47D cells at 50 ug/ml after 72 hrs by BrdUrd incorporation assay
# [5] = system: T47D; assay: Antiproliferative activity against human T47D cells at 50 ug/ml after 24 hrs by BrdUrd incorporation assay
# [6] = system: HeLa; assay: Antiproliferative activity against human HeLa cells at 50 ug/ml after 24 hrs by BrdUrd incorporation assay
Structure (SMILES),inhibition of growth at 50 µg/mL [1] [%],inhibition of growth at 50 µg/mL [2] [%],inhibition of growth at 50 µg/mL [3] [%],inhibition of growth at 50 µg/mL [4] [%],inhibition of growth at 50 µg/mL [5] [%],inhibition of growth at 50 µg/mL [6] [%]
O=c1c(-c2ccco2)nnc2n1CCN2c1cccc(Cl)c1,80,50,95,80,20,80
Cc1ccc(N2CCn3c2nnc(-c2ccco2)c3=O)cc1,50,60,80,80,40,50
Cc1cccc(N2CCn3c2nnc(-c2ccco2)c3=O)c1C,75,15,90,25,0,60
O=c1c(-c2ccco2)nnc2n1CCN2c1ccc(Cl)cc1,75,15,90,15,0,50
